Measurements published in patent publication US20250368666A1, “INDAZOLE COMPOUNDS” (TYRA BIOSCIENCES, INC., priority 2022, published 2025).
Structures can show the parent of a compound that is named as a salt. Where two headings read alike, the source gives them in different places.

Tests used:
FGFR3 = molecular target: T1, FGFR3 (Homo sapiens, UniProt P22607); experiment: Kinase binding assay (kinase-tagged T7 phage, affinity beads, qPCR), Kd; settings: read-out: FGFR3 (Kd nM)
T1 construct: made in house; host or cells: E. coli (BL21-derived), T7 phage
T1 sequence (P22607 23-806): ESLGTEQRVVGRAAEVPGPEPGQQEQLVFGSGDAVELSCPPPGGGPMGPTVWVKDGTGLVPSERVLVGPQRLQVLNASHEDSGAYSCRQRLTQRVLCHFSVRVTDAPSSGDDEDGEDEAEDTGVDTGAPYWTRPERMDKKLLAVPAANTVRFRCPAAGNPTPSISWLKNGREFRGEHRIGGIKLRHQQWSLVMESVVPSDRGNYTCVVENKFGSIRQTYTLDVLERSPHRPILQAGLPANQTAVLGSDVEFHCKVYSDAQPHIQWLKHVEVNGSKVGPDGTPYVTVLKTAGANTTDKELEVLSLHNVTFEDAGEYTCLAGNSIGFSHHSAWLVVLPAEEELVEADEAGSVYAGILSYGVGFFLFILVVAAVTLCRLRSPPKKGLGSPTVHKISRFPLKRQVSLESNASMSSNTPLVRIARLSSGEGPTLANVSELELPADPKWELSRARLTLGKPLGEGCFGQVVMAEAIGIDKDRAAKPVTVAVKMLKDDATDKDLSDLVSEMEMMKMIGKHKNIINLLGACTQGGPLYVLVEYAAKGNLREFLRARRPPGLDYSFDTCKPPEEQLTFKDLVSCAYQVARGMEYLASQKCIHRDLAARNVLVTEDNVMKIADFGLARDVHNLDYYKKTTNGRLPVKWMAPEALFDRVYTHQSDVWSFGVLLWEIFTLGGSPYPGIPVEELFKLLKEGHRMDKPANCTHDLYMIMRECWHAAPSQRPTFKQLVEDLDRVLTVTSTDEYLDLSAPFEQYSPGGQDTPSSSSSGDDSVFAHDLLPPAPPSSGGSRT
Procedure: (§1) Kinase-tagged T7 phage strains were prepared in an E. coli host derived from the BL21 strain. E. coli were grown to log-phase and infected with T7 phage and incubated with shaking at 32° C. until lysis. The lysates were centrifuged and filtered to remove cell debris. Streptavidin-coated magnetic beads were treated with biotinylated small molecule ligands for 30 minutes at room temperature to generate affinity resins for kinase assays. The liganded beads were blocked with excess biotin and washed with blocking buffer SeaBlock (Pierce), 1% BSA, 0.05% Tween 20, 1 mM DTT to remove unbound ligand and to reduce non-specific binding.
(§2) Test compounds were prepared as 111× stocks in 100% DMSO. Kds were determined using an 11-point 3-fold compound dilution series with three DMSO control points. […] The compounds were then diluted directly into the assays such that the final concentration of DMSO was 0.9%. All reactions performed in polypropylene 384-well plate. Each was a final volume of 0.02 ml. […] The kinase concentration in the eluates was measured by qPCR.
(§3) Binding constants were calculated with a standard dose-response curve using the Hill equation: […]
(§4) The Hill Slope was set to −1. Curves were fitted using a non-linear least square fit with the Levenberg-Marquardt algorithm.

FGFR1 = molecular target: T2, FGFR1 (Homo sapiens, UniProt P11362); experiment: as above; settings: read-out: FGFR1 (Kd nM)
T2 construct: made in house; host or cells: E. coli (BL21-derived), T7 phage
T2 sequence (P11362 22-822): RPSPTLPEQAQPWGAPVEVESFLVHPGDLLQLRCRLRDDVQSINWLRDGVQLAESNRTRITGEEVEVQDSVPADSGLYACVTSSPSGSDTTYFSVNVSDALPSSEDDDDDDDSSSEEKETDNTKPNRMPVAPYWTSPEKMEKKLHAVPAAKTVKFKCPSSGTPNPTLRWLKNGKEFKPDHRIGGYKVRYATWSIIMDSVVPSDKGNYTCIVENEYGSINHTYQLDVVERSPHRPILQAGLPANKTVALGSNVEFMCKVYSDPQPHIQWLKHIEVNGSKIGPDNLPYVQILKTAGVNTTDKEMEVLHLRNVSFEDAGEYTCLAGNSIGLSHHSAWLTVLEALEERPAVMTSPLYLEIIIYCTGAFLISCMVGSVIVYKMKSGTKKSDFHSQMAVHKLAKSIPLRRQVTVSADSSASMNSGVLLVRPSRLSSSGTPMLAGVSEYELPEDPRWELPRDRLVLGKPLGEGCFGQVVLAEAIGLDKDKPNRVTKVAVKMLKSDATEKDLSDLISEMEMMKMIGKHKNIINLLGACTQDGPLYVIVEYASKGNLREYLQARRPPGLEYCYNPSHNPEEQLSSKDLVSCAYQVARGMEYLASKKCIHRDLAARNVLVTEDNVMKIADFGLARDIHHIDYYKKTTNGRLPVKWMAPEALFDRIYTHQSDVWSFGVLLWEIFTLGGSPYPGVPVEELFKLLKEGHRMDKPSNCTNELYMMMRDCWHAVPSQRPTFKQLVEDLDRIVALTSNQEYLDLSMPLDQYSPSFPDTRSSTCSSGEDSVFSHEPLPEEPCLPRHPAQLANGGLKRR
Procedure: as §1, §2, §3, §4

[1] = kinase binding assay, 11-point 3-fold dilution series

Kd (FGFR3) [nM]	Kd (FGFR1) [nM]	Kd (FGFR3; [1]) [nM]	Kd (FGFR1; [1]) [nM]	Structure (SMILES)
1 to 50	1 to 50			COc1cc2[nH]nc(-c3ccc(N4CCC(C)(N)C4)nc3)c2cc1O[C@H](C)c1c(Cl)cncc1Cl (stereo in doubt) [Example 380, (R)-1-(5-(5-((R)-1-(3,5-dichloropyridin-4-yl)ethoxy)-6-methoxy-1H-indazol-3-yl)pyridin-2-yl)-3-methylpyrrolidin-3-amine]
		1 to 50	1 to 50	C[C@@H](Oc1ccc2[nH]nc(-c3ccc(N4CCC(N)(c5ccnn5C)C4)nn3)c2c1)c1c(Cl)cncc1Cl (stereo in doubt) [Example 416, (R)-1-(6-(5-((R)-1-(3,5-dichloropyridin-4-yl)ethoxy)-1H-indazol-3-yl)pyridazin-3-yl)-3-(1-methyl-1H-pyrazol-5-yl)pyrrolidin-3-amine]
1 to 50	1 to 50			CCNC1(C)CN(c2ncc(-c3n[nH]c4ccc(O[C@H](C)c5c(Cl)cncc5Cl)cc34)cn2)C1 [Example 238, (R)-1-(5-(5-(1-(3,5-dichloropyridin-4-yl)ethoxy)-1H-indazol-3-yl)pyrimidin-2-yl)-N-ethyl-3-methylazetidin-3-amine]
1 to 50	1 to 50			C=CCNC1(C)CN(c2ccc(-c3n[nH]c4ccc(O[C@H](C)c5c(Cl)cncc5Cl)cc34)c(F)n2)C1 [Example 240, (R)-N-ally1-1-(5-(5-(1-(3,5-dichloropyridin-4-yl)ethoxy)-1H-indazol-3-yl)-6-fluoropyridin-2-yl)-3-methylazetidin-3-amine]
1 to 50	1 to 50			C[C@@H](Oc1ccc2[nH]nc(-c3cnc(N4CC(CC#N)(N(C)C)C4)c(F)c3)c2c1)c1c(Cl)cncc1Cl [Example 252, (R)-2-(1-(5-(5-(1-(3,5-dichloropyridin-4-yl)ethoxy)-1H-indazol-3-yl)-3-fluoropyridin-2-yl)-3-(dimethyl-amino)azeti-din-3-yl)acetonitrile]
1 to 50	50 to 300			CC(C)CNC1(CC#N)CN(c2ncc(-c3n[nH]c4ccc(O[C@H](C)c5c(Cl)cncc5Cl)cc34)cc2F)C1 [Example 253, (R)-2-(1-(5-(5-(1-(3,5-Dichloropyridin-4-yl)ethoxy)-1H-indazol-3-yl)-3-fluoropyridin-2-yl)-3-(iso-butylamino)azeti-din-3-yl)acetonitrile dihydrochloride]
1 to 50	50 to 300			Cc1ncc(Cl)c([C@@H](C)Oc2ccc3[nH]nc(-c4cnc(N5CC(CC#N)(NCC(C)C)C5)c(F)c4)c3c2)c1Cl [Example 254, (R)-2-(1-(5-(5-(1-(3,5-Dichloro-2-methylpyridin-4-yl)ethoxy)-1H-indazol-3-yl)-3-fluoropyridin-2-yl)-3-(iso-butylamino)azeti-din-3-yl)acetonitrile]
1 to 50	50 to 300			CC(C)N(C)C1(CC#N)CN(c2ncc(-c3n[nH]c4ccc(O[C@H](C)c5c(Cl)cncc5Cl)cc34)cc2F)C1 [Example 257, (R)-2-(1-(5-(5-(1-(3,5-dichloropyridin-4-yl)ethoxy)-1H-indazol-3-yl)-3-fluoropyridin-2-yl)-3-(isopropyl(methyl)a-mino)azetidin-3-yl)acetonitrile]
1 to 50	1 to 50			C[C@@H](Oc1ccc2[nH]nc(-c3cnc(N4CC(N)(C5CCOCC5)C4)c(F)c3)c2c1)c1c(Cl)cncc1Cl [Example 263, (R)-1-(5-(5-(1-(3,5-dichloropyridin-4-yl)ethoxy)-1H-indazol-3-yl)-3-fluoropyridin-2-yl)-3-(tetrahydro-2H-pyran-4-yl)azetidin-3-amine]
1 to 50	1 to 50			CCCC1(N)CN(c2ncc(-c3n[nH]c4ccc(O[C@H](C)c5c(Cl)cncc5Cl)cc34)cc2F)C1 [Example 265, (R)-1-(5-(5-(1-(3,5-dichloropyridin-4-yl)ethoxy)-1H-indazol-3-yl)-3-fluoropyridin-2-yl)-3-propylazetidin-3-amine]
1 to 50	1 to 50			C[C@@H](Oc1ccc2[nH]nc(-c3cnc(N4CC(C)(NCCN5CCCC5)C4)c(F)c3)c2c1)c1c(Cl)cncc1Cl [Example 268, (R)-1-(5-(5-(1-(3,5-dichloropyridin-4-yl)ethoxy)-1H-indazol-3-yl)-3-fluoropyridin-2-yl)-3-methyl-N-(2-(pyrrolidin-1-yl)ethyl)azetidin-3-amine]
1 to 50	1 to 50			C[C@@H](Oc1ccc2[nH]nc(-c3ccc(N4CC(N)(CC(C)(C)O)C4)nn3)c2c1)c1c(Cl)cncc1Cl [Example 275, (R)-1-(3-amino-1-(6-(5-(1-(3,5-dichloropyridin-4-yl)ethoxy)-1H-indazol-3-yl)pyridazin-3-yl)azetidin-3-yl)-2-methylpropan-2-ol]
1 to 50	1 to 50			C[C@@H](Oc1ccc2[nH]nc(-c3ccc(N4CC(N)(CC(C)(C)O)C4)nc3)c2c1)c1c(Cl)cncc1Cl [Example 278, (R)-1-(3-amino-1-(5-(5-(1-(3,5-dichloropyridin-4-yl)ethoxy)-1H-indazol-3-yl)pyridin-2-yl)azetidin-3-yl)-2-methylpropan-2-ol]
1 to 50	1 to 50			C[C@@H](Oc1ccc2[nH]nc(-c3ccc(N4CC(N)(CCO)C4)nc3)c2c1)c1c(Cl)cncc1Cl [Example 279, (R)-2-(3-amino-1-(5-(5-(1-(3,5-dichloropyridin-4-yl)ethoxy)-1H-indazol-3-yl)pyridin-2-yl)azetidin-3-yl)ethanol]
1 to 50	1 to 50			CCC(C)C1(N)CN(c2ncc(-c3n[nH]c4ccc(O[C@H](C)c5c(Cl)cncc5Cl)cc34)cc2F)C1 (stereo partly drawn) [Example 280, 1-[5-[5-[(1R)-1-(3,5-dichloro-4-pyridyl)ethoxy]-1H-indazol-3-yl]-3-fluoro-2-pyridyl]-3-sec-butyl-azetidin-3-amine]
1 to 50	1 to 50			C[C@@H](Oc1ccc2[nH]nc(-c3ccc(N4CC(C)(N)C4)nn3)c2c1)c1c(Cl)cncc1Cl [Example 286]
1 to 50	1 to 50			CC(C)OC(=O)C1(N)CN(c2ncc(-c3n[nH]c4ccc(O[C@H](C)c5c(Cl)cncc5Cl)cc34)cc2F)C1 [Example 287, (R)-isopropyl 3-amino-1-(5-(5-(1-(3,5-dichloropyridin-4-yl)ethoxy)-1H-indazol-3-yl)-3-fluoropyridin-2-yl)azetidine-3-carboxylate]
1 to 50	1 to 50			C[C@@H](Oc1ccc2[nH]nc(-c3cnc(N4CC(N)(CC5CCCO5)C4)c(F)c3)c2c1)c1c(Cl)cncc1Cl (stereo partly drawn) [Example 288, 1-(5-(5-((R)-1-(3,5-dichloropyridin-4-yl)ethoxy)-1H-indazol-3-yl)-3-fluoropyridin-2-yl)-3-((tetrahydrofuran-2-yl)methyl)azetidin-3-amine]
1 to 50	1 to 50			C[C@@H](Oc1ccc2[nH]nc(-c3ccc(N4CC(N)(CCF)C4)nn3)c2c1)c1c(Cl)cncc1Cl [Example 292, (R)-1-(6-(5-(1-(3,5-dichloropyridin-4-yl)ethoxy)-1H-indazol-3-yl)pyridazin-3-yl)-3-(2-fluoroethyl)azetidin-3-amine]
1 to 50	1 to 50			C[C@@H](Oc1ccc2[nH]nc(-c3cnc(N4CC(N)(C(=O)N(C)C)C4)c(F)c3)c2c1)c1c(Cl)cncc1Cl [Example 293, (R)-3-amino-1-(5-(5-(1-(3,5-dichloropyridin-4-yl)ethoxy)-1H-indazol-3-yl)-3-fluoropyridin-2-yl)-N,N-dimethylazetidine-3-carboxamide]
1 to 50	1 to 50			CNC(=O)C1(N)CN(c2ncc(-c3n[nH]c4ccc(O[C@H](C)c5c(Cl)cncc5Cl)cc34)cc2F)C1 [Example 296, (R)-3-amino-1-(5-(5-(1-(3,5-dichloropyridin-4-yl)ethoxy)-1H-indazol-3-yl)-3-fluoropyridin-2-yl)-N-methylazetidine-3-carboxamide]
1 to 50	1 to 50			COc1cc2[nH]nc(-c3cnc(N4CC(C)(N)C4)nc3)c2cc1O[C@H](C)c1c(Cl)cncc1Cl [Example 302, (R)-1-(5-(5-(1-(3,5-dichloropyridin-4-yl)ethoxy)-6-methoxy-1H-indazol-3-yl)pyrimidin-2-yl)-3-methylazetidin-3-amine]
1 to 50	1 to 50			C[C@@H](Oc1ccc2[nH]nc(-c3ccc(N4CC(N)(CC5CCCO5)C4)nn3)c2c1)c1c(Cl)cncc1Cl (stereo partly drawn) [Example 305, 1-(6-(5-((R)-1-(3,5-dichloropyridin-4-yl)ethoxy)-1H-indazol-3-yl)pyridazin-3-yl)-3-((tetrahydrofuran-2-yl)methyl)azetidin-3-amine]
1 to 50	1 to 50			C[C@@H](Oc1ccc2[nH]nc(-c3cnc(N4CC(N)(CCCO)C4)c(F)c3)c2c1)c1c(Cl)cncc1Cl [Example 307, (R)-3-(3-amino-1-(5-(5-(1-(3,5-dichloropyridin-4-yl)ethoxy)-1H-indazol-3-yl)-3-fluoropyridin-2-yl)azetidin-3-yl)propan-1-ol]
			1 to 50	C[C@@H](Oc1ccc2[nH]nc(-c3cnc(N4CC[C@@](C)(N)C4)c(F)c3)c2c1)c1c(Cl)cncc1Cl [Example 408, (R)-1-(5-(5-((R)-1-(3,5-dichloropyridin-4-yl)ethoxy)-1H-indazol-3-yl)-3-fluoropyridin-2-yl)-3-methylpyrrolidin-3-amine]
